Where two headings read alike, the source gives them in different places. Values belong to the molecule of their own block, whether it stands above or below them.
Assays:
[1] = Pharmacokinetics after intravenous bolus and oral gavage; type: in vivo, Swiss albino mice; details: for F: 50 mg/kg vs IV 5 mg/kg
[2] = system: chronic EAE induced by MOG35-55 peptide; assay: In vivo test on model of chronic EAE (Experimental Autoimmune Encephalomyelitis); parameters: species or system C57BL/6 female mice
[3] = mouse, in vivo, IV (5 mg/kg), Swiss albino mice, mean
[4] = mouse, in vivo, PO (50 mg/kg), Swiss albino mice, mean
[5] = oral, first 10 days from immunization, versus placebo group
[6] = IV, 5 mg/kg, Swiss albino mice, mean
[7] = PO, 50 mg/kg, Swiss albino mice, mean

F ([1]; PO, Swiss albino mice): 24
bioavailability ([1]; Swiss albino, mouse, in vivo, 50 mg/kg, oral gavage vs intravenous bolus, text says rats, n=3, read-out: total bioavailability after oral administration): 24%
AUC(0-inf) [1, 3]: 750 ng·h/mL
AUC(0-t) [1, 3]: 724 ng·h/mL
clearance [1, 3]: 111 mL/min/kg
half-life [1, 3]: 8.45 h
Cmax ([1]; mouse, in vivo, IV (5 mg/kg), Swiss albino mice, mean, read-out: Cmax): 1280 ng/mL
Vd ([1]; mouse, in vivo, IV (5 mg/kg), Swiss albino mice, mean, read-out: Vss): 20.6 L/kg
AUC(0-inf) [1, 4]: 1790 ng·h/mL
AUC(0-t) [1, 4]: 1760 ng·h/mL
Cmax ([1]; mouse, in vivo, PO (50 mg/kg), Swiss albino mice, mean, read-out: Cmax): 930 ng/mL
Tmax ([1]; mouse, in vivo, PO (50 mg/kg), Swiss albino mice, mean, read-out: Tmax): 0.25 h
SMILES: Fc1ccc(C2=C(CN3CCCC3)COc3ccc(OCC4CC4)cc32)cc1 [AX-104, 1-((6-(cyclopropylmethoxy)-4-(4-fluorophenyl)-2H-chromen-3-yl)methyl)pyrrolidine]
clinical score of the disease (scale 0-6), FIG. 2 [2, 5]: reduced score when compared to the placebo group
weight of the animals (weight loss), FIG. 3 [2, 5]: weight loss significantly reduced
impact of the symptoms associated to the model ([2]; overall results of the EAE study): significantly reducing the impact of the symptoms

AUCint [1, 6]: 840.27 ng·h/mL
AUClast [1, 6]: 838.43 ng·h/mL
CL [1, 6]: 99.17 mL/min/kg
Cmax [1, 6]: 1168.89 ng/mL
T1/2 [1, 6]: 3.36 h
Vss [1, 6]: 11.37 L/kg
F ([1]; PO, Swiss albino mice): 4
AUCint [1, 7]: 299.69 ng·h/mL
AUClast [1, 7]: 297.03 ng·h/mL
Cmax [1, 7]: 171.56 ng/mL
T1/2 [1, 7]: 4.93 h
Tmax [1, 7]: 0.25 h
SMILES: COc1ccc2c(c1)C(c1ccc(F)cc1)=C(CN1CCCC1)CO2 [ECRA-24]
